Assay results reported in ChEMBL document CHEMBL4673264, “Discovery of natural TRPA1 activators through pharmacophore-based virtual screening and a biological assay” (Bioorg Med Chem Lett, 2021).

Columns and labels:
[1] = molecular target: T1, Transient receptor potential cation channel subfamily A member 1 (Homo sapiens, UniProt O75762); experiment: Agonist activity at TRPA1 (unknown origin) by calcium imaging assay
[2] = molecular target: T1, Transient receptor potential cation channel subfamily A member 1; experiment: Agonist activity at TRPA1 (unknown origin) by calcium imaging assay relative to allyl isothiocyanate; set-up: concentration or dose not given beside the values; settings: filed as agonist

T1 sequence (O75762 whole entry): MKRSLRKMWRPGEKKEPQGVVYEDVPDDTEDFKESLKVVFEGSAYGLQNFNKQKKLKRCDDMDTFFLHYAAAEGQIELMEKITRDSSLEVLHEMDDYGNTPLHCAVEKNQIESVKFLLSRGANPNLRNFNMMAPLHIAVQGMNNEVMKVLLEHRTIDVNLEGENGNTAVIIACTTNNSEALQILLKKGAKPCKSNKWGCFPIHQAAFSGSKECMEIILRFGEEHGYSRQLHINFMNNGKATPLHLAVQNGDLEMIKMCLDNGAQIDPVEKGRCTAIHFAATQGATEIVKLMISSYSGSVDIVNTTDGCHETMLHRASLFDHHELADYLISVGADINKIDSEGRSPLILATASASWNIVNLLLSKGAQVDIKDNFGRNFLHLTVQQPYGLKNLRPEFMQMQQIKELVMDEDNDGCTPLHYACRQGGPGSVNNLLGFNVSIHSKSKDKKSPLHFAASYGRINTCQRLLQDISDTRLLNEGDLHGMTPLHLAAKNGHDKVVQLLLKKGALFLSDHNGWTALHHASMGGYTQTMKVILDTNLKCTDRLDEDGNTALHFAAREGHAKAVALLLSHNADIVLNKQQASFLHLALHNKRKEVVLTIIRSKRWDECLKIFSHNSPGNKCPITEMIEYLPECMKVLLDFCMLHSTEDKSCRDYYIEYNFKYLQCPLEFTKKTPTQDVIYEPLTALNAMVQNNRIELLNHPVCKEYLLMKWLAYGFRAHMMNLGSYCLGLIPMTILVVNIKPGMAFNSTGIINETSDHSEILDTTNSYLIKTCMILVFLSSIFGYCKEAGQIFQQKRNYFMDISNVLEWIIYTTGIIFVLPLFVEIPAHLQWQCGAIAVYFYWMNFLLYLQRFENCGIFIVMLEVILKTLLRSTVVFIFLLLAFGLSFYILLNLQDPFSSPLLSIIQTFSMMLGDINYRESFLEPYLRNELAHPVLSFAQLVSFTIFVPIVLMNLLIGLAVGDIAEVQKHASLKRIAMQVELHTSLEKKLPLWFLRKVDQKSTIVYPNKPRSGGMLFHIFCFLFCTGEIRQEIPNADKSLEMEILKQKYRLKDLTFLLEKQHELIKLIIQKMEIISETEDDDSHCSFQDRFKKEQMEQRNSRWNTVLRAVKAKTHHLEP

Row | Structure (SMILES) | EC50 [1] | Activity [2]
1 | Cc1ccc(O)c(O)c1 | 11.7 µM | 107%
2 | Cc1ccc(C(C)C)c(O)c1 |  | 140%
3 | c1ccc2[nH]ccc2c1 [INDOLE] | 75.2 µM | 111%
4 | Oc1ccccc1Cl [2-CHLOROPHENOL] | 501 µM | 54%
5 | CCc1ccc(O)c(OC)c1 | 101 µM | 74%
6 | Cc1cccc(O)c1C | 86 µM | 82%
7 | C=Cc1ccc(O)c(OC)c1 | 82.8 µM | 50%
8 | COc1cc(O)c(CC=C(C)C)c2c1C(=O)CC(c1ccc(O)cc1)O2 (stereo not drawn) |  | 90%
9 | C=CCc1ccc(O)c(OC)c1 [EUGENOL] | 116 µM | 122%
10 | C/C=C/c1ccc(O)c(OC)c1 | 149 µM | 139%
11 | Cc1cccc(O)c1O | 2.83 µM | 151%
12 | COc1cc(C(=O)C(O)CO)ccc1O (stereo not drawn) |  | 63%
13 | CCc1ccc(O)c(O)c1 | 8.69 µM | 99%
